Reference: PubChem BioAssay AID1918940 (Molecular Pharmacology Branch, DTP, NCI, 2023)

System: NCI-H211 complex spheroid viability
Experiment: Anticancer human tumor NCI-H211 cell line growth inhibition [LSD1];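 further: luminescent viability read after seven days of drug exposure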;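 on viability, T/C: 100% = DMSO vehicle control viability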
Details: for IC50: curve of first compound; for viability, T/C: stronger effect = lower value
Summary of the method: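 Complex spheroids of tumor cells with HUVEC and human MSCs, exposed to iadademstat combined with other agents. Each agent tested in half-log steps from near clinical Cmax (else 10 microM top), DMSO ≤0.25%.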

[1] = second compound 0.1 µM, first compound 0.00949 µM
[2] = second compound 0.1 µM, first compound 0.03 µM
[3] = second compound 0.1 µM, first compound 0.0949 µM
[4] = second compound 0.1 µM, first compound 0.3 µM
[5] = second compound 0.1 µM, first compound 0.949 µM
[6] = second compound 0.1 µM, first compound 3 µM
[7] = second compound 0.316 µM, first compound 0.00949 µM
[8] = second compound 0.316 µM, first compound 0.03 µM
[9] = second compound 0.316 µM, first compound 0.0949 µM
[10] = second compound 0.316 µM, first compound 0.3 µM
[11] = second compound 0.316 µM, first compound 0.949 µM
[12] = second compound 0.316 µM, first compound 3 µM
[13] = second compound 1 µM, first compound 0.00949 µM
[14] = second compound 1 µM, first compound 0.03 µM
[15] = second compound 1 µM, first compound 0.0949 µM
[16] = second compound 1 µM, first compound 0.3 µM
[17] = second compound 1 µM, first compound 0.949 µM
[18] = second compound 1 µM, first compound 3 µM
[19] = second compound 3.16 µM, first compound 0.00949 µM
[20] = second compound 3.16 µM, first compound 0.03 µM
[21] = second compound 3.16 µM, first compound 0.0949 µM
[22] = second compound 3.16 µM, first compound 0.3 µM
[23] = second compound 3.16 µM, first compound 0.949 µM
[24] = second compound 3.16 µM, first compound 3 µM
[25] = second compound 10 µM, first compound 0.00949 µM
[26] = second compound 10 µM, first compound 0.03 µM
[27] = second compound 10 µM, first compound 0.0949 µM
[28] = second compound 10 µM, first compound 0.3 µM
[29] = second compound 10 µM, first compound 0.949 µM
[30] = second compound 10 µM, first compound 3 µM

Cn1ncnc1C1c2n[nH]c(=O)c3cc(F)cc(c23)NC1c1ccc(F)cc1 (stereo not given) + NC1CCC(NC2CC2c2ccccc2)CC1
IC50 (second compound 0.1 µM): 1.91 nM
IC50 (second compound 0.316 µM): 1.68 nM
IC50 (second compound 1 µM): 1.56 nM
IC50 (second compound 3.16 µM): 1.24 nM
IC50 (second compound 10 µM): < 0.316 nM
viability, T/C (second compound 0.1 µM, first compound 0.000316 µM): 69.9%
viability, T/C (second compound 0.1 µM, first compound 0.001 µM): 61.4%
viability, T/C (second compound 0.1 µM, first compound 0.00316 µM): 39.8%
viability, T/C (second compound 0.1 µM, first compound 0.01 µM): 4.59%
viability, T/C (second compound 0.1 µM, first compound 0.0316 µM): 1.93%
viability, T/C (second compound 0.1 µM, first compound 0.1 µM): 2.12%
viability, T/C (second compound 0.316 µM, first compound 0.000316 µM): 67%
viability, T/C (second compound 0.316 µM, first compound 0.001 µM): 66.3%
viability, T/C (second compound 0.316 µM, first compound 0.00316 µM): 30.7%
viability, T/C (second compound 0.316 µM, first compound 0.01 µM): 4.65%
viability, T/C (second compound 0.316 µM, first compound 0.0316 µM): 2.59%
viability, T/C (second compound 0.316 µM, first compound 0.1 µM): 2.43%
viability, T/C (second compound 1 µM, first compound 0.000316 µM): 59%
viability, T/C (second compound 1 µM, first compound 0.001 µM): 59.9%
viability, T/C (second compound 1 µM, first compound 0.00316 µM): 35.7%
viability, T/C (second compound 1 µM, first compound 0.01 µM): 4.84%
viability, T/C (second compound 1 µM, first compound 0.0316 µM): 2.31%
viability, T/C (second compound 1 µM, first compound 0.1 µM): 2.49%
viability, T/C (second compound 3.16 µM, first compound 0.000316 µM): 54.7%
viability, T/C (second compound 3.16 µM, first compound 0.001 µM): 53.5%
viability, T/C (second compound 3.16 µM, first compound 0.00316 µM): 33.7%
viability, T/C (second compound 3.16 µM, first compound 0.01 µM): 3.84%
viability, T/C (second compound 3.16 µM, first compound 0.0316 µM): 2.11%
viability, T/C (second compound 3.16 µM, first compound 0.1 µM): 2.23%
viability, T/C (second compound 10 µM, first compound 0.000316 µM): 33.6%
viability, T/C (second compound 10 µM, first compound 0.001 µM): 31.5%
viability, T/C (second compound 10 µM, first compound 0.00316 µM): 16%
viability, T/C (second compound 10 µM, first compound 0.01 µM): 1.98%
viability, T/C (second compound 10 µM, first compound 0.0316 µM): 0.92%
viability, T/C (second compound 10 µM, first compound 0.1 µM): 1.15%

NS(=O)(=O)OCC1CC(n2ccc3c(NC4CCc5ccccc54)ncnc32)CC1O (stereo not given) + NC1CCC(NC2CC2c2ccccc2)CC1
IC50 (second compound 0.1 µM): < 9.49 nM
IC50 (second compound 0.316 µM): < 9.49 nM
IC50 (second compound 1 µM): < 9.49 nM
IC50 (second compound 3.16 µM): < 9.49 nM
IC50 (second compound 10 µM): < 9.49 nM
viability, T/C [1]: 17.3%
viability, T/C [2]: 8.79%
viability, T/C [3]: 2.05%
viability, T/C [4]: 4.77%
viability, T/C [5]: 0.6%
viability, T/C [6]: 0.42%
viability, T/C [7]: 16.2%
viability, T/C [8]: 7.48%
viability, T/C [9]: 2.74%
viability, T/C [10]: 0.89%
viability, T/C [11]: 0.5%
viability, T/C [12]: 0.48%
viability, T/C [13]: 15.2%
viability, T/C [14]: 7.52%
viability, T/C [15]: 2.66%
viability, T/C [16]: 1.51%
viability, T/C [17]: 5.93%
viability, T/C [18]: 0.59%
viability, T/C [19]: 11.4%
viability, T/C [20]: 6.38%
viability, T/C [21]: 1.67%
viability, T/C [22]: 0.54%
viability, T/C [23]: 0.21%
viability, T/C [24]: 5.61%
viability, T/C [25]: 7.36%
viability, T/C [26]: 4.1%
viability, T/C [27]: 0.72%
viability, T/C [28]: 0.29%
viability, T/C [29]: 0.22%
viability, T/C [30]: 0.19%

O=C(C=Cc1cccc(S(=O)(=O)Nc2ccccc2)c1)NO + NC1CCC(NC2CC2c2ccccc2)CC1
IC50 (second compound 0.1 µM): < 9.49 nM
IC50 (second compound 0.316 µM): < 9.49 nM
IC50 (second compound 1 µM): < 9.49 nM
IC50 (second compound 3.16 µM): < 9.49 nM
IC50 (second compound 10 µM): < 9.49 nM
viability, T/C [1]: 15.1%
viability, T/C [2]: 3.51%
viability, T/C [3]: 2.43%
viability, T/C [4]: 1.81%
viability, T/C [5]: 0.5%
viability, T/C [6]: 0.09%
viability, T/C [7]: 18.4%
viability, T/C [8]: 3.02%
viability, T/C [9]: 8.25%
viability, T/C [10]: 1.92%
viability, T/C [11]: 1.26%
viability, T/C [12]: 0.1%
viability, T/C [13]: 17.3%
viability, T/C [14]: 3.31%
viability, T/C [15]: 4.77%
viability, T/C [16]: 1.92%
viability, T/C [17]: 3.19%
viability, T/C [18]: 5.1%
viability, T/C [19]: 11.6%
viability, T/C [20]: 2.91%
viability, T/C [21]: 4.81%
viability, T/C [22]: 2.66%
viability, T/C [23]: 0.27%
viability, T/C [24]: 0.1%
viability, T/C [25]: 9.56%
viability, T/C [26]: 2.44%
viability, T/C [27]: 2.03%
viability, T/C [28]: 1.32%
viability, T/C [29]: 0.15%
viability, T/C [30]: 0.17%
